# Results published in patent US20050059669A1, “M-substituted benzoic acid derivatives having integrin alpha v beta 3 antagonistic activity” (priority 1999, published 2005).
# Assays:
# GP IIb/IIIa = GP IIb/IIIa (Homo sapiens, UniProt P05106+P08514); assay: GP IIb/IIIa antagonistic activity (method of Pharmacological Test 2 in WO 94/21599); format: binding
# Method: GP IIb/IIIa antagonistic activity was measured for the compounds according to the present invention. The measurement of the GP IIb/IIIa antagonistic activity was carried out according to the method described in Pharmacological Test 2 in WO 94/21599. As a result, both the compounds prepared in Examples 3 and 6 had significant GP IIb/IIIa antagonistic activity. In particular, the IC50 value of the compound prepared in Example 3 was 2.0 nM.
# [1] = target: T1, integrin αvβ3 (vitronectin receptor purified from the human placenta) (Homo sapiens, UniProt P05106+P06756); assay: αvβ3 binding assay (vitronectin-vitronectin receptor binding assay); details: vitronectin binding to coated human placenta vitronectin receptor; read-out: integrin αvβ3 antagonistic activity (IC50)
# T1 construct: a vitronectin receptor (protein content: 118 mg/ml) purified from the human placenta; from tissue; host or cells: human placenta
# T1 sequence (P06756 31-889 limits assumed): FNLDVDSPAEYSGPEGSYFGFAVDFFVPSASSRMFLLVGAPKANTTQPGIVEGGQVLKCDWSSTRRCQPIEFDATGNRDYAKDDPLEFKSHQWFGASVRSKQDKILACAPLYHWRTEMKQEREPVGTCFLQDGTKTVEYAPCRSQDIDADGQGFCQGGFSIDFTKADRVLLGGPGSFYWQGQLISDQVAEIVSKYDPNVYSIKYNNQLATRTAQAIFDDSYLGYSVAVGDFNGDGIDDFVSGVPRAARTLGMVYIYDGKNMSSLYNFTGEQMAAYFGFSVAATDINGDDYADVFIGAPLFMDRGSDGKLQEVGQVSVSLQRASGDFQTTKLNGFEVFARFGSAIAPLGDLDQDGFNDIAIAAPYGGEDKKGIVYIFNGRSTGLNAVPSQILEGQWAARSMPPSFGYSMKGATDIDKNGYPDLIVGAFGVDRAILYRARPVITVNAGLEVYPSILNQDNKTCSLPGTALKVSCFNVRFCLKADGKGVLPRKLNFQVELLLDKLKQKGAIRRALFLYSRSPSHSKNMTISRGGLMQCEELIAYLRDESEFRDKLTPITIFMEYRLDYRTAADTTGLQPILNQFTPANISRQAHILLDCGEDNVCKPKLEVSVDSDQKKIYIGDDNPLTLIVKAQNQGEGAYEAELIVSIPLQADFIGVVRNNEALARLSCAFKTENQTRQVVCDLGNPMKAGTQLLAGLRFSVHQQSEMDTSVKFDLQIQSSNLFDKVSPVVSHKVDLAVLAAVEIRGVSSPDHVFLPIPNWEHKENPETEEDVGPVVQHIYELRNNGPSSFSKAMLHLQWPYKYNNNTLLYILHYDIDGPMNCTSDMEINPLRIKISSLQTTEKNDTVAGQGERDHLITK
# T1 sequence (P06756 891-1048 partner limits assumed): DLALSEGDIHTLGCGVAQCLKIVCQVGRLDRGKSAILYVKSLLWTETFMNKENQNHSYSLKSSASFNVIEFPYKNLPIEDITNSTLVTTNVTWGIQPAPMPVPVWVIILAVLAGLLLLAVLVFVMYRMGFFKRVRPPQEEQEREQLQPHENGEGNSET
# T1 sequence (P05106 27-788): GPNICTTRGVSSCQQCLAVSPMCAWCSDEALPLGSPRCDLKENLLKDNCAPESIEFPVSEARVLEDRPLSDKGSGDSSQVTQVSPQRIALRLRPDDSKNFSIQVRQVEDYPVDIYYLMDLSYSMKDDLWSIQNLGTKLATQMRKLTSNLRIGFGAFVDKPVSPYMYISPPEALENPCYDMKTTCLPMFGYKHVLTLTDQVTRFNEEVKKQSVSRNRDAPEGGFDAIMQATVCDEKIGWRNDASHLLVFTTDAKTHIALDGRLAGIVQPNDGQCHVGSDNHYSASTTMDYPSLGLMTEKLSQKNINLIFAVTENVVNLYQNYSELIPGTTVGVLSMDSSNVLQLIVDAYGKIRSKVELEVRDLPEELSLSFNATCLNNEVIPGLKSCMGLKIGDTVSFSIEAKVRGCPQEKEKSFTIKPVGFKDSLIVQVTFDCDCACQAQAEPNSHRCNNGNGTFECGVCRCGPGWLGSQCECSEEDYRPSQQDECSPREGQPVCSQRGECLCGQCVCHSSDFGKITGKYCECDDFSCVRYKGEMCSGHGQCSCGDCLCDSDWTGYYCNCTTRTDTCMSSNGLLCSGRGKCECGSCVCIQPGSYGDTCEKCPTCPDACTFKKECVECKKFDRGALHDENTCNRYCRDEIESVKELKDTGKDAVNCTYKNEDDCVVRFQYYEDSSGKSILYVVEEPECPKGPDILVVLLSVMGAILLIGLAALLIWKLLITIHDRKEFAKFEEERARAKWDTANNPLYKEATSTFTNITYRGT
# Method: Integrin αvβ3 antagonistic activity was first measured in a vitronectin-vitronectin receptor binding assay system in accordance with the method of Kouns et al. (W. C. Kouns, D. Kirchhofer, P. Hadvary, A. Edenhofer, T. Weller, G. Pfenninger, H. R. Baumgartner, L. K. Jennings and B. Steiner, Blood, 80, 2539-2547 (1992)). […] A 0.1 M citric acid buffer (pH 4.3) containing 0.05% NaN3 was added in an amount of 50 μl/well to stop the reaction, followed by the measurement of the absorbance at 415 nm with a microplate reader (MTP 32, Corona Electric) (reference: 675 nm). The total binding was defined as the absorbance after a reaction using 50 μl of TBS-Tween instead of the test compound, and the non-specific binding (100% inhibition) was defined as the absorbance after a reaction using 50 μl of TBS-Tween containing 2×10^−3 M RGDS. The inhibition was calculated by the following equation: [formula]
# IC50 was determined from a primary regression line of the logarithm of each concentration of the test compound and the logarithm of (100−inhibition)/inhibition.
# [2] = system: human vascular smooth muscle cells; assay: Inhibitory activity against adhesion of human vascular smooth muscle cells to vitronectin; format: cell-based
# Method: The adhesion of human vascular smooth muscle cells to immobilized human vitronectin was measured in accordance with the method of Liaw et al. (Liaw L, Almeida M, Hart C E, Schwartz S M, and Giachelli C M, Circulation Research, 74 (2), 214-224 (1994)).
# A Dulbecco's phosphate buffer (Dulbecco's PBS(−), Nissui Pharmaceutical Co., Ltd.) solution of human plasma-derived vitronectin (CALBIOCHEM) adjusted to a concentration of 4 μg/ml was first added to wells (50 μl/well) of a microplate (Maxisorp, Nunc), and a reaction for immobilization was allowed to proceed at 4° C. overnight. After washing twice with 150 μl of Dulbecco's phosphate buffer, a Dulbecco's phosphate buffer containing 10 mg/ml of bovine serum albumin (SIGMA) was added, followed by blocking at 37° C. for one hr. […]
# Next, 50 μl of a Dulbecco's modified Eagle's basal medium containing 0.1% of bovine serum albumin with a medicament added thereto was added to the wells of the human vitronectin-coated assay microplate, followed by pre-cultivation under 5% carbon dioxide at 37° C. for 10 min. […] The absorbance of the microplate thus obtained was measured at 595 nm. […] The inhibition was calculated by the following equation. IC50 was determined from a primary regression line of the logarithm of each concentration of the test compound and the logarithm of (100−inhibition)/inhibition. […]
# Chain of GP IIb/IIIa (P08514 32-887 limits assumed): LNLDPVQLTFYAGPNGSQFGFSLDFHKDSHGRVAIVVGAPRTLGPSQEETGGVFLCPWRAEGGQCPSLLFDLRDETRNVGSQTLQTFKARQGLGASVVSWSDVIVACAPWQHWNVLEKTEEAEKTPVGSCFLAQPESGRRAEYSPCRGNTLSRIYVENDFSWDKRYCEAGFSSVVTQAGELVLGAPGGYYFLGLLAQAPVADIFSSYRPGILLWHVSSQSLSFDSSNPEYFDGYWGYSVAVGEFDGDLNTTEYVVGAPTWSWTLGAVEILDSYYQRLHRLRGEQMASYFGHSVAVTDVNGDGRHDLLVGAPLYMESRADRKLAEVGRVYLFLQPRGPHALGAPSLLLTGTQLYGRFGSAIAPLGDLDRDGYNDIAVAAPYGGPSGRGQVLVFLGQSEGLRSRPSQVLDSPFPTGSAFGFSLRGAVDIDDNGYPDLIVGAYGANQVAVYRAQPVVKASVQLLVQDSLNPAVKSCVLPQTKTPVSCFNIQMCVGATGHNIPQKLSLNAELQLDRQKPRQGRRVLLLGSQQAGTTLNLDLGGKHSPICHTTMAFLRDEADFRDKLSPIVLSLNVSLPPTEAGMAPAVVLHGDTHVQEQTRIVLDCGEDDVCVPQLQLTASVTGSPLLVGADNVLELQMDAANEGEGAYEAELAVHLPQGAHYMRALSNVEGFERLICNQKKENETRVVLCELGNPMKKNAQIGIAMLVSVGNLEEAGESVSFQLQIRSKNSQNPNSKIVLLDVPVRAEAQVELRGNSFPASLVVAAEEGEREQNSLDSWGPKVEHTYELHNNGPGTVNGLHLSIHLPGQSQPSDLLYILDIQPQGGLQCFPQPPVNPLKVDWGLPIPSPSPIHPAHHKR
# Chain of GP IIb/IIIa (P08514 891-1039 partner limits assumed): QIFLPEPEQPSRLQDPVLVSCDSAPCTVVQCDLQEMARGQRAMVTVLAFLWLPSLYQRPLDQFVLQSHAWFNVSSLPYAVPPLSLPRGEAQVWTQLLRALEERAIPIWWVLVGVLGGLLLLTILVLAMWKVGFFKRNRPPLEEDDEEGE
# Chain of GP IIb/IIIa (P05106 27-788): as the sequence (P05106 27-788) above
smiles,measurement,setting,value
"O=C(NC[C@H](NS(=O)(=O)c1ccccc1)C(=O)O)c1cccc(N2CCN(C3=NCCCN3)CC2)c1 [Example 3, (2S)-Benzenesulfonylamino-3-[3-{4-(1,4,5,6-tetrahydropyrimidin-2-yl)piperazin-1-yl}benzoylamino]-propionic acid]",IC50,GP IIb/IIIa,2 nM
same,IC50,[1],1.3 nM
"O=C(NC[C@H](NS(=O)(=O)c1ccccc1)C(=O)O)c1cccc(N2CCC(NC3=NCCCN3)CC2)c1 [Example 6, (2S)-Benzenesulfonylamino-3-[3-{4-(1,4,5,6-tetrahydropyrimidin-2-ylamino)piperidin-1-yl}benzoylamino]propionic acid]",GP IIb/IIIa antagonistic activity,GP IIb/IIIa; result in words,significant
"O=C(NC[C@H](NS(=O)(=O)c1ccccc1)C(=O)O)c1ccc(F)c(N2CCC(NC3=NCCCN3)CC2)c1 [Example 9, (2S)-Benzenesulfonylamino-3-[4-fluoro-3-{4-(1,4,5,6-tetrahydropyrimidin-2-ylamino)piperidin-1-yl}-benzoylamino]propionic acid]",IC50,[1],2 nM
"O=C(NC[C@H](NS(=O)(=O)c1ccccc1)C(=O)O)c1cc(N2CCC(NC3=NCCCN3)CC2)cc(C(F)(F)F)c1 [Example 27, (2S)-Benzenesulfonylamino-3-[3-{4-(1,4,5,6-tetrahydropyrimidin-2-ylamino)piperidin-1-yl}-5-(trifluoromethyl)benzoylamino]propionic acid]",IC50,[2]; immobilized human vitronectin,96 nM
same,cell adhesion inhibitory activity,[2]; result in words,potent
